Experimental findings from US12662460B2, “Compositions for use for the inhibition of dihydroorotate dehydrogenase” (OHIO STATE INNOVATION FOUNDATION, priority 2019, dated 2026) are described below.

One assay concerns the target T1, recombinant human DHODH (Homo sapiens, UniProt Q02127).
T1 construct: made in house
In words: DHODH enzymatic assay (DCIP reduction). In kind it is biochemical. The note with it: recombinant human enzyme, 25° C.; read-out: h-DHODH IC50. Here is the method:
DHODH Enzymatic Assay: DHODH activity was determined at 25° C. following the reduction of 2,6-dichloroindophenol sodium salt (DCIP) at 600 nm (ε=18 800 M^−1 cm^−1) on a spectrophotometer. The reaction medium used contained 50 mM Tris-HCl, pH 8.0, 0.1% Triton X-100, 0.1 mM LDHO, 0.025 mM CoQ1, and 0.06 mM DCIP. The reaction was started by addition of the enzyme. The inhibitory potency of the compounds was evaluated by measuring the initial velocity of the reaction either in the absence or in the presence of the compounds at the indicated concentrations. The DHODH enzyme used was the recombinant human enzyme prepared as previously described (Hëlène Munier-Lehmann, et al., J. Med. Chem. 2015, 58:860-877).

Another assay has as its system OCI-AML3. The assay can be described thus: MTS assay for cell growth/viability, OCI-AML3. The note with it: Homo sapiens, OCI-AML-3, 96 hours. The class given is cell-based. The method, then:
(§1) MTS assay for cell growth/viability: Mitochondrial activity was measured to determine cell proliferation using an MTS assay ([…]). Metabolically active cells convert MTS tetrazolium salt into a purple formazan product that is soluble in tissue culture medium. The amount of formazan measured at 490 nm absorbance is proportional to the number of proliferating cells. MTS assays in AML cell lines were carried out with 20K cells plated per well in 96-well plates with Cpd3 or brequinar in a dose series ranging from 0.0001 to 10 μM. Triplicate wells were set up for each condition. At 96 hours, the MTS reagent was added and after approximately 4 hours the plates were read in a spectrophotometer.
(§2) Biological Activity. Cell proliferation assays were carried out using the MTS assay described herein using two AML cell lines (i.e., MOLM13 and OCI-AML3) with varied genetic backgrounds. The assays were carried out in a blinded fashion.

The next assay has as its system MOLM13. In words: MTS assay for cell growth/viability, MOLM13. The class given is cell-based. The note with it: Homo sapiens, MOLM-13, 96 hours. Here is the method:
as §1, §2

T1 sequence (Q02127 whole entry): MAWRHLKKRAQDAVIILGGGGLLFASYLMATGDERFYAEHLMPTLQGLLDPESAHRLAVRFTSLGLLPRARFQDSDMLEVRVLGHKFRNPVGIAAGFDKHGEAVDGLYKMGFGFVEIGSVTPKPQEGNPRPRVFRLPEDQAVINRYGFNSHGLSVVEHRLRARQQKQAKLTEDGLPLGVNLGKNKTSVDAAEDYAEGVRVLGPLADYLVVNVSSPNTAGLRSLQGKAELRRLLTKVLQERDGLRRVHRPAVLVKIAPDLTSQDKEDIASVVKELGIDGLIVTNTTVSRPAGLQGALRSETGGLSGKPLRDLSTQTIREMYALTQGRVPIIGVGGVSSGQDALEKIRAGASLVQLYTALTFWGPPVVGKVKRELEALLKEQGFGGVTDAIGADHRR

Regarding `CCOc1ccc(-c2ccc(-c3cc(C(=O)O)c4cc(F)ccc4n3)cn2)cc1` [Cpd1, 2-(6-(4-ethoxyphenyl)pyridin-3-yl)-6-fluoroquinoline-4-carboxylic acid], the figures for the IC50 on recombinant human DHODH, in the assay with OCI-AML3 and in the assay on MOLM13 were 628 nM, 4320 nM and 5350 nM, respectively.
For the compound `CCOc1cccc(-c2cnc(-c3cc(C(=O)O)c4cc(F)ccc4n3)nc2)c1` [Cpd6, 2-(5-(3-ethoxyphenyl)pyrimidin-2-yl)-6-fluoroquinoline-4-carboxylic acid], the half-maximal inhibitory concentration (IC50) at recombinant human DHODH was 1820 nM; with OCI-AML3, > 10000 nM.
On to `CCOc1ccc(-c2ccc(-c3cc(C(=O)O)c4cc(F)ccc4n3)nn2)cc1` [Cpd5, 2-(6-(4-ethoxyphenyl)pyridazin-3-yl)-6-fluoroquinoline-4-carboxylic acid], for which the IC50 on recombinant human DHODH was 4750 nM; in the assay on OCI-AML3, > 10000 nM.
The like results for `CCOc1ccc(-c2cnc(-c3cc(C(=O)O)c4cc(F)ccc4n3)cn2)cc1` [Cpd4, 2-(5-(4-ethoxyphenyl)pyrazin-2-yl)-6-fluoroquinoline-4-carboxylic acid] were, in that order, 500 nM and 2100 nM.
Regarding `CCOc1ccc(-c2ccc(-c3cc(C(=O)O)c4cc(F)ccc4n3)nc2)cc1` [Cpd2, 2-(5-(4-ethoxyphenyl)pyridin-2-yl)-6-fluoroquinoline-4-carboxylic acid], the IC50 is 317 nM at recombinant human DHODH, 709 nM with OCI-AML3 and 571 nM with MOLM13.
For `CCOc1ccc(-c2cnc(-c3cc(C(=O)O)c4cc(F)ccc4n3)nc2)cc1` [Cpd3, 2-(5-(4-ethoxyphenyl)pyrimidin-2-yl)-6-fluoroquinoline-4-carboxylic acid], the midpoint of inhibition in the assay on OCI-AML3, the IC50, lay at 3640 nM.
With `CCOc1cccc(-c2ccc(-c3cc(C(=O)O)c4cc(F)ccc4n3)nn2)c1` [Cpd7, 2-(6-(3-ethoxyphenyl)pyridazin-3-yl)-6-fluoroquinoline-4-carboxylic acid], the figures for the IC50 on recombinant human DHODH and in the assay on OCI-AML3 were 605 nM and > 10000 nM, respectively.

What is called IC50 is the point on the concentration scale where inhibition reaches its midpoint.
